Our source for the IC50 values is patent publication US20240317721A1, “PYRAZOLYL DERIVATIVES AS INHIBITORS OF THE KRAS MUTANT PROTEIN” (NOVARTIS AG, priority 2021, published 2024).

The structures appear in SMILES notation. Bounds are passed on as bounds.

This experiment addresses KRasG12C (M1-K169, biotinylated on the N-terminus) (Homo sapiens (Human), UniProt P01116, G12C). The experiment can be described thus: Covalent competition assay: scintillation proximity assay (SPA) quantifying covalent modification of KRASG12C. Type of experiment: binding. Conditions: competition with radiolabeled covalent probe (Compound B/Compound A), 2 hours incubation, 10 nM KRasG12C. Put shortly:
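Test compounds compete with a radiolabeled covalent probe for modification of N-terminally biotinylated KRasG12C(M1-K169):GDP, final 10 nM protein, 25 nM radio-ligand, 475 nM unlabelled ligand, 2 h with agitation in 20 mM Tris-HCl pH 7.5, 150 mM NaCl, 0.1 mM MgCl2, 0.01% Tween-20.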
Background: Scintillation proximity formats need no separation of bound from free tracer.
The IC50 is the concentration at which inhibition is half-maximal. In the case of `CC#CC(=O)N1CC2(CC(n3nc(N4CCN(C5COC5)CC45CCC5)c(-c4c(Cl)c(C)cc5[nH]ncc45)c3C)C2)C1` (single isomer, unassigned) [Example 78a, 1-(6-(4-(5-chloro-6-methyl-1H-indazol-4-yl)-5-methyl-3-(8-(oxetan-3-yl)-5,8-diazaspiro[3.5]nonan-5-yl)-1H-pyrazol-1-yl)-2-azaspiro[3.3]heptan-2-yl)but-2-yn-1-one], the IC50 came to 1300 nM. Under `CC#CC(=O)N1CC2(CC(n3nc(N4CCN(C5COC5)CC45CCC5)c(-c4c(Cl)c(C)cc5[nH]ncc45)c3C)C2)C1` (single isomer, unassigned) [Example 78b, 1-(6-(4-(5-chloro-6-methyl-1H-indazol-4-yl)-5-methyl-3-(8-(oxetan-3-yl)-5,8-diazaspiro[3.5]nonan-5-yl)-1H-pyrazol-1-yl)-2-azaspiro[3.3]heptan-2-yl)but-2-yn-1-one] stands above 5000 nM. Under `C=CC(=O)N1CC2(CC(n3nc(N4CCN(C5COC5)CC45CCC5)c(-c4c(C)c(Cl)cc5[nH]ncc45)c3C)C2)C1` (single isomer, unassigned) [Example 79a, 1-(6-(4-(6-chloro-5-methyl-1H-indazol-4-yl)-5-methyl-3-(8-(oxetan-3-yl)-5,8-diazaspiro[3.5]nonan-5-yl)-1H-pyrazol-1-yl)-2-azaspiro[3.3]heptan-2-yl)prop-2-en-1-one] stands above 5000 nM. The value for `C=CC(=O)N1CC2(CC(n3nc(N4CCN(C5COC5)CC45CCC5)c(-c4c(C)c(Cl)cc5[nH]ncc45)c3C)C2)C1` (single isomer, unassigned) [Example 79b, 1-(6-(4-(6-chloro-5-methyl-1H-indazol-4-yl)-5-methyl-3-(8-(oxetan-3-yl)-5,8-diazaspiro[3.5]nonan-5-yl)-1H-pyrazol-1-yl)-2-azaspiro[3.3]heptan-2-yl)prop-2-en-1-one] was 18 nM; that for `C=CC(=O)N1CC2(CC(n3nc(N4CCC(N(CCOC)CCOC)CC45CCC5)c(-c4c(Cl)c(Cl)cc5[nH]ncc45)c3C)C2)C1` (single isomer, unassigned) [Example 80a, 1-(6-(3-(8-(bis(2-methoxyethyl)amino)-5-azaspiro[3.5]nonan-5-yl)-4-(5,6-dichloro-1H-indazol-4-yl)-5-methyl-1H-pyrazol-1-yl)-2-azaspiro[3.3]heptan-2-yl)prop-2-en-1-one] was above 5000 nM; that for `C=CC(=O)N1CC2(CC(n3nc(N4CCC(N(CCOC)CCOC)CC45CCC5)c(-c4c(Cl)c(Cl)cc5[nH]ncc45)c3C)C2)C1` (single isomer, unassigned) [Example 80b, 1-(6-(3-(8-(bis(2-methoxyethyl)amino)-5-azaspiro[3.5]nonan-5-yl)-4-(5,6-dichloro-1H-indazol-4-yl)-5-methyl-1H-pyrazol-1-yl)-2-azaspiro[3.3]heptan-2-yl)prop-2-en-1-one] was 7 nM. For the molecule `C=CC(=O)N1CC2(CC(n3nc(N4CCN(C[C@@H]5COCCO5)C[C@]4(C)CC)c(-c4c(Cl)cnc5[nH]ncc45)c3C)C2)C1` (single isomer, unassigned) [Example 81a], the half-maximal inhibitory concentration (IC50) was above 5000 nM. As to `C=CC(=O)N1CC2(CC(n3nc(N4CCN(C[C@@H]5COCCO5)C[C@]4(C)CC)c(-c4c(Cl)cnc5[nH]ncc45)c3C)C2)C1` (single isomer, unassigned) [Example 81b], the concentration for half-maximal inhibition (IC50) was determined as 585 nM.

Regarding `C=CC(=O)N1CC2(CC(n3nc(N4CCS(=O)(=O)CC4(C)C)c(-c4c(Cl)c(C)cc5[nH]ncc45)c3C)C2)C1` (single isomer, unassigned) [Example 82a, 1-(6-(4-(5-chloro-6-methyl-1H-indazol-4-yl)-3-(3,3-dimethyl-1,1-dioxidothiomorpholino)-5-methyl-1H-pyrazol-1-yl)-2-azaspiro[3.3]heptan-2-yl)prop-2-en-1-one], the IC50 worked out at 50000 nM. The value for `C=CC(=O)N1CC2(CC(n3nc(N4CCS(=O)(=O)CC4(C)C)c(-c4c(Cl)c(C)cc5[nH]ncc45)c3C)C2)C1` (single isomer, unassigned) [Example 82b, 1-(6-(4-(5-chloro-6-methyl-1H-indazol-4-yl)-3-(3,3-dimethyl-1,1-dioxidothiomorpholino)-5-methyl-1H-pyrazol-1-yl)-2-azaspiro[3.3]heptan-2-yl)prop-2-en-1-one] was 831 nM; that for `C=CC(=O)N1CC2(CC(n3nc(N4CCC(N5C[C@@H]6C[C@H]5CO6)CC4(C)C)c(-c4c(Cl)c(C)cc5[nH]ncc45)c3C)C2)C1` (single isomer, unassigned) [Example 83a] was above 5000 nM.

With `C=CC(=O)N1CC2(CC(n3nc(N4CCC(N5C[C@@H]6C[C@H]5CO6)CC4(C)C)c(-c4c(Cl)c(C)cc5[nH]ncc45)c3C)C2)C1` (single isomer, unassigned) [Example 83b], the 50% inhibitory concentration (IC50) was found to be 26 nM. With `C=CC(=O)N1CC2(CC(n3nc(N4CCC(N(C)[C@@H]5CCOC5)CC4(C)C)c(-c4c(Cl)c(C)cc5[nH]ncc45)c3C)C2)C1` (single isomer, unassigned) [Example 84a], the IC50 was above 5000 nM. The value for `C=CC(=O)N1CC2(CC(n3nc(N4CCC(N(C)[C@@H]5CCOC5)CC4(C)C)c(-c4c(Cl)c(C)cc5[nH]ncc45)c3C)C2)C1` (single isomer, unassigned) [Example 84b] was 14 nM; that for `C=CC(=O)N1CC2(CC(n3nc(N4CCN(C[C@@H]5COCCO5)C[C@]4(C)CCOC)c(-c4c(Cl)c(C)cc5[nH]ncc45)c3C)C2)C1` (single isomer, unassigned) [Example 85a] was 5000 nM. Under `C=CC(=O)N1CC2(CC(n3nc(N4CCN(C[C@@H]5COCCO5)C[C@]4(C)CCOC)c(-c4c(Cl)c(C)cc5[nH]ncc45)c3C)C2)C1` (single isomer, unassigned) [Example 85b] stands 8 nM. Take `C=CC(=O)N1CC2(CC(n3nc(N4CCN(C5COC5)C[C@]4(C)CCOC)c(-c4c(Cl)c(C)cc5[nH]ncc45)c3C)C2)C1` (single isomer, unassigned) [Example 86a]: the IC50 stood at 2300 nM. Regarding `C=CC(=O)N1CC2(CC(n3nc(N4CCN(C5COC5)C[C@]4(C)CCOC)c(-c4c(Cl)c(C)cc5[nH]ncc45)c3C)C2)C1` (single isomer, unassigned) [Example 86b], the concentration for half-maximal inhibition (IC50) was found to be 8 nM.

For the molecule `C=CC(=O)N1CC2(CC(n3nc(N4CCN(C5CCOCC5)C[C@]4(C)CCOC)c(-c4c(Cl)c(C)cc5[nH]ncc45)c3C)C2)C1` (single isomer, unassigned) [Example 87a], the IC50 was found to be 13 nM. For `C=CC(=O)N1CC2(CC(n3nc(N4CCN(C5CCOCC5)C[C@]4(C)CCOC)c(-c4c(Cl)c(C)cc5[nH]ncc45)c3C)C2)C1` (single isomer, unassigned) [Example 87b], the concentration for half-maximal inhibition (IC50) came to 1500 nM. The value for `C=CC(=O)N1CC2(CC(n3nc(N4CCCC4(C)C)c(-c4c(Cl)c(C)cc5[nH]ncc45)c3C)C2)C1` (single isomer, unassigned) [Example 88a, 1-(6-(4-(5-chloro-6-methyl-1H-indazol-4-yl)-3-(2,2-dimethylpyrrolidin-1-yl)-5-methyl-1H-pyrazol-1-yl)-2-azaspiro[3.3]heptan-2-yl)prop-2-en-1-one] was above 5000 nM. With `C=CC(=O)N1CC2(CC(n3nc(N4CCCC4(C)C)c(-c4c(Cl)c(C)cc5[nH]ncc45)c3C)C2)C1` (single isomer, unassigned) [Example 88b, 1-(6-(4-(5-chloro-6-methyl-1H-indazol-4-yl)-3-(2,2-dimethylpyrrolidin-1-yl)-5-methyl-1H-pyrazol-1-yl)-2-azaspiro[3.3]heptan-2-yl)prop-2-en-1-one], the half-maximal inhibitory concentration (IC50) came to 467 nM. Under `C=CC(=O)N1CC2(CC(n3nc(N4CCN(C[C@@H]5COCCO5)C[C@]4(C)CC)c(-c4c(Cl)c(Cl)cc5[nH]ncc45)c3C)C2)C1` (single isomer, unassigned) [Example 89a] stands 3400 nM. Under `C=CC(=O)N1CC2(CC(n3nc(N4CCN(C[C@@H]5COCCO5)C[C@]4(C)CC)c(-c4c(Cl)c(Cl)cc5[nH]ncc45)c3C)C2)C1` (single isomer, unassigned) [Example 89b] stands below 5 nM; under `C=CC(=O)N1CC2(CC(n3nc(N4CCN(C5CCOCC5)C[C@]4(C)COC)c(-c4c(Cl)c(C)cc5[nH]nc(N)c45)c3C)C2)C1` (single isomer, unassigned) [Example 90a], 23 nM. Under `C=CC(=O)N1CC2(CC(n3nc(N4CCN(C5CCOCC5)C[C@]4(C)COC)c(-c4c(Cl)c(C)cc5[nH]nc(N)c45)c3C)C2)C1` (single isomer, unassigned) [Example 90b] stands 558 nM; under `C=CC(=O)N1CC2(CC(n3nc(N4CCC5(CN(C6COC6)C5)CC4(C)C)c(-c4c(Cl)c(C)cc5[nH]ncc45)c3C)C2)C1` (single isomer, unassigned) [Example 91a, 1-(6-(4-(5-chloro-6-methyl-1H-indazol-4-yl)-3-(6,6-dimethyl-2-(oxetan-3-yl)-2,7-diazaspiro[3.5]nonan-7-yl)-5-methyl-1H-pyrazol-1-yl)-2-azaspiro[3.3]heptan-2-yl)prop-2-en-1-one], 2900 nM; under `C=CC(=O)N1CC2(CC(n3nc(N4CCC5(CN(C6COC6)C5)CC4(C)C)c(-c4c(Cl)c(C)cc5[nH]ncc45)c3C)C2)C1` (single isomer, unassigned) [Example 91b, 1-(6-(4-(5-chloro-6-methyl-1H-indazol-4-yl)-3-(6,6-dimethyl-2-(oxetan-3-yl)-2,7-diazaspiro[3.5]nonan-7-yl)-5-methyl-1H-pyrazol-1-yl)-2-azaspiro[3.3]heptan-2-yl)prop-2-en-1-one], 13 nM. In the case of `C=CC(=O)N1CC2(CC(n3nc(N4CCC5(CN(C6COC6)C5)CC4(C)C)c(-c4c(Cl)c(Cl)cc5[nH]ncc45)c3C)C2)C1` (single isomer, unassigned) [Example 92a, 1-(6-(4-(5,6-dichloro-1H-indazol-4-yl)-3-(6,6-dimethyl-2-(oxetan-3-yl)-2,7-diazaspiro[3.5]nonan-7-yl)-5-methyl-1H-pyrazol-1-yl)-2-azaspiro[3.3]heptan-2-yl)prop-2-en-1-one], the concentration for half-maximal inhibition (IC50) came out at 2100 nM.
